The values that follow come from ChEMBL document CHEMBL4765232 (J Med Chem, 2016).

Each structure is given as a SMILES string.

Data set [1] is described as follows: Intrinsic clearance in dog liver microsomes assessed per mg protein. In kind it is ADME, Canis lupus familiaris, Microsome.
The next data set has as its target T1, CYP1A2 (Homo sapiens, UniProt P05177).
T1 sequence (P05177 whole entry): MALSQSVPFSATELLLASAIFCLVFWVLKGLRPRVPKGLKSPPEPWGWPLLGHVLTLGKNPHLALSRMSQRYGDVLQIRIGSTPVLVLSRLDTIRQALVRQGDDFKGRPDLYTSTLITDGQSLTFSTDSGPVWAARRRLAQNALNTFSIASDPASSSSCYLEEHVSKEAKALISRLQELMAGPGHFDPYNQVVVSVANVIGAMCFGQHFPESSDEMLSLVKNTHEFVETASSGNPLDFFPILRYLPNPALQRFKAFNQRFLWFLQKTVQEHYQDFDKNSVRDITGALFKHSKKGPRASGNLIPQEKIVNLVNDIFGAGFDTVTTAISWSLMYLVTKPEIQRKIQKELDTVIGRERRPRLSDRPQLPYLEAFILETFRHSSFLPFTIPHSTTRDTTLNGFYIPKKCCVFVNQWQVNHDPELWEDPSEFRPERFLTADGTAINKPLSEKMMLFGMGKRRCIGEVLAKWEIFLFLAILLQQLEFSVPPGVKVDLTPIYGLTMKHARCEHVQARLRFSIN
In words: Inhibition of CYP1A2 (unknown origin) at 10 uM relative to control. In kind it is ADME.

The nature of data set [2]: Protein binding in human plasma assessed as bound fraction. In kind it is ADME, cell-free. The following applies: read-out: PPB (converted).
Data set [3] in a line: Protein binding in dog plasma assessed as bound fraction. The note with it: read-out: PPB (converted). In kind it is ADME, cell-free, Canis lupus familiaris.
In the next data set the target is CYP3A4 (Homo sapiens, UniProt P08684). In words: Inhibition of CYP3A4 (unknown origin) at 10 uM relative to control. In kind it is ADME.
CYP3A4, sequence (P08684 whole entry): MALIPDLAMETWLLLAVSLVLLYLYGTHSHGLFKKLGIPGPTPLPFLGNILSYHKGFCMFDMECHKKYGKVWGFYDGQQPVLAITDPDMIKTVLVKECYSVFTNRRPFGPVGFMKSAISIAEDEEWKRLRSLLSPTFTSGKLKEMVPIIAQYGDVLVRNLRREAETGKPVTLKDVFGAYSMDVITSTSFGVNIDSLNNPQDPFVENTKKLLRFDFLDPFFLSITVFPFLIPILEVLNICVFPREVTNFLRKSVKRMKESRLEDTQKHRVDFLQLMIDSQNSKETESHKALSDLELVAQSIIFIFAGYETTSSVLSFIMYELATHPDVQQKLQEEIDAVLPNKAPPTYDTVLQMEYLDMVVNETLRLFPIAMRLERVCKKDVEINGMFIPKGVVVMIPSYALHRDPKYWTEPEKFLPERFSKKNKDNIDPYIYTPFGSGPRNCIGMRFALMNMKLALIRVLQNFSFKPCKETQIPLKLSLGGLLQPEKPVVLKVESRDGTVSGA
The nature of data set [4]: Intrinsic clearance in rat liver microsomes assessed per mg protein. In kind it is ADME, Microsome.
Data set [5] deals with T2, Histone-lysine N-methyltransferase EZH2 (Homo sapiens, UniProt Q15910). In words: Inhibition of EZH2 in human HeLa cells assessed as inhibition of trimethylation of H3K27 after 72 hrs by AlphaLISA assay. In kind it is cell-based.
T2 sequence (Q15910 whole entry): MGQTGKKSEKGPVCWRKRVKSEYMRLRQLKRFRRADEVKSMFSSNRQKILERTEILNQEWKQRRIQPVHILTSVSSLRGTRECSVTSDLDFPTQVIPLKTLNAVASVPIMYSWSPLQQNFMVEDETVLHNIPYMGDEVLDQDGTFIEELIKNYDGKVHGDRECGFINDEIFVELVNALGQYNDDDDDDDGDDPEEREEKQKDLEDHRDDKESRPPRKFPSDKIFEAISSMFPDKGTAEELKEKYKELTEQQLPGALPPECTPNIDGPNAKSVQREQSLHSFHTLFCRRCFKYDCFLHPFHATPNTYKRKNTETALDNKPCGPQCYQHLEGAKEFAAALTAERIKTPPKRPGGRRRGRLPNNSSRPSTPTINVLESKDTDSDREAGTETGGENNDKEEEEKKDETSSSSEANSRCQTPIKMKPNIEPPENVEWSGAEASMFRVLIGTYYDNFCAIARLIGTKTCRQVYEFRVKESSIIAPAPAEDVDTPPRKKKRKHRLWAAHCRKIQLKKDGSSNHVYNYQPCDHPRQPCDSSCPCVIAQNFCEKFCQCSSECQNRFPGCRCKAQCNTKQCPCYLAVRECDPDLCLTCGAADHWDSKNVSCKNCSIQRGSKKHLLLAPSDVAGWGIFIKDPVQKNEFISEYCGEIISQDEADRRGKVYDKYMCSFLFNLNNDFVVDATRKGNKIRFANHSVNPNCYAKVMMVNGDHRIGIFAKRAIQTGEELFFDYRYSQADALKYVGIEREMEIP
Another data set deals with CYP2D6 (Homo sapiens, UniProt P10635). In words: Inhibition of CYP2D6 (unknown origin) at 10 uM relative to control. In kind it is ADME.
CYP2D6, sequence (P10635 whole entry): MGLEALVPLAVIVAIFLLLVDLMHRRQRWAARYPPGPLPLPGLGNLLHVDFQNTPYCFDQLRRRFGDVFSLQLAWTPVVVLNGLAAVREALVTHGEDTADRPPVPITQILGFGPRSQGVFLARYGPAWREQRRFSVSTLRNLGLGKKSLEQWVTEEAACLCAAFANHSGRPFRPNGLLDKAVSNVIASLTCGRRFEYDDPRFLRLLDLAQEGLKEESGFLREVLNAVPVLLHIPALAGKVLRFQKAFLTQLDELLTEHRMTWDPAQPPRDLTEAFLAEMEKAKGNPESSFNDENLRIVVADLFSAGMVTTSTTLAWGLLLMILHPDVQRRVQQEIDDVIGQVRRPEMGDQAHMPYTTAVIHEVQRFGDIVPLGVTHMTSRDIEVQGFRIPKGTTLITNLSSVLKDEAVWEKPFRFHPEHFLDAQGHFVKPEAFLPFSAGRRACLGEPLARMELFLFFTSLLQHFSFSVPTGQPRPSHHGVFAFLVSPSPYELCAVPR
A further data set concerns the target CYP2C9 (Homo sapiens, UniProt P11712). In words: Inhibition of CYP2C9 (unknown origin) at 10 uM relative to control. In kind it is ADME.
In data set [6] the target is T2, Histone-lysine N-methyltransferase EZH2. In words: Inhibition of wild-type EZH2 in PRC2 complex (unknown origin) using RKQLATKAARK(Me3)SAPATGGVKKP-NH2 peptide substrate preincubated for 30 mins followed by addition of [3H]-SAM measured after 2 hrs by Topcount scintillation proximity assay.
Data set [7] is described as follows: Intrinsic clearance in mouse liver microsomes assessed per mg protein. In kind it is ADME, Microsome.
Data set [8] can be described thus: Protein binding in mouse plasma assessed as bound fraction. In kind it is ADME, cell-free. The following applies: for fraction unbound: read-out: PPB (converted).
The nature of data set [9]: Intrinsic clearance in human liver microsomes assessed per mg protein. In kind it is ADME, Microsome.
A short description of data set [10]: Protein binding in rat plasma assessed as bound fraction. In kind it is ADME, cell-free. The following applies: read-out: PPB (converted).
The target in another data set is T3, CYP2C8 (Homo sapiens, UniProt P10632).
T3 sequence (P10632 whole entry): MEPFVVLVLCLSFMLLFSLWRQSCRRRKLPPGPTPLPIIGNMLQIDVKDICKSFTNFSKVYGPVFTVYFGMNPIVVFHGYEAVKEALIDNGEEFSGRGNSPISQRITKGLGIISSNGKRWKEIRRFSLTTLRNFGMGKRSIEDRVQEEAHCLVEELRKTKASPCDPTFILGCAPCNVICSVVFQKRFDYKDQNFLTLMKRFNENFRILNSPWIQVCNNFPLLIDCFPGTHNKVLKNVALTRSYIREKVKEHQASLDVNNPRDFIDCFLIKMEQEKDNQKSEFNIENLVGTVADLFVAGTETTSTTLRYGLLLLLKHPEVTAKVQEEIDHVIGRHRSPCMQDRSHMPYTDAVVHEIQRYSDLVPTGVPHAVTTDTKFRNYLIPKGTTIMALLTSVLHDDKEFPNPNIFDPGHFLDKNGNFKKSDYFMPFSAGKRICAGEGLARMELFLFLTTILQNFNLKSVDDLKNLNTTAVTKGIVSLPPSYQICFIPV
In words: Inhibition of CYP2C8 (unknown origin) at 10 uM relative to control. In kind it is ADME.

Data set [11] in a line: Clearance in Balb/c mouse at 1 mg/kg, iv formulated with 5:25:70 DMA/PEG400/20% SBECD relative to liver blood flow. In kind it is ADME, organism-based. The following applies: in vivo.
Data set [12] is described as follows: AUC (0 to infinity) in Balb/c mouse at 100 mg/kg, po formulated in 0.5 % methyl cellulose maintained at pH 3. In kind it is ADME, organism-based. Also on record: time infinity, route oral, dose 100 mg/kg. The note with it: in vivo, pH 3, 100 mg/kg.
The nature of data set [13]: Oral bioavailability in Balb/c mouse at 100 mg/kg formulated in 0.5 % methyl cellulose maintained at pH 3. In kind it is ADME, organism-based. The following applies: in vivo, pH 3, 100 mg/kg.
A short description of data set [14]: Fraction unbound in mouse plasma. In kind it is ADME, cell-free.
The nature of data set [15]: Half life in Balb/c mouse plasma at 1 mg/kg, iv formulated with 5:25:70 DMA/PEG400/20% SBECD. In kind it is ADME, organism-based.
Data set [16] is described as follows: Unbound clearance in Balb/c mouse at 1 mg/kg, iv formulated with 5:25:70 DMA/PEG400/20% SBECD. In kind it is ADME, organism-based. The note with it: in vivo.
The nature of data set [17]: Unbound Cmax in Balb/c mouse at 100 mg/kg, po formulated in 0.5 % methyl cellulose maintained at pH 3. In kind it is ADME, organism-based. The note with it: in vivo, pH 3, 100 mg/kg.
A short description of data set [18]: Clearance in Balb/c mouse at 1 mg/kg, iv formulated with 5:25:70 DMA/PEG400/20% SBECD. In kind it is ADME, organism-based. The following applies: in vivo.
Data set [19] is described as follows: Volume of distribution at steady in Balb/c mouse at 1 mg/kg, iv formulated with 5:25:70 DMA/PEG400/20% SBECD. In kind it is ADME, organism-based. The note with it: in vivo, read-out: Vdss.
Data set [20] is described as follows: Tmax in Balb/c mouse at 100 mg/kg, po formulated in 0.5 % methyl cellulose maintained at pH 3. In kind it is ADME, organism-based. The following applies: in vivo, pH 3, 100 mg/kg.
Data set [21] in a line: Unbound AUC in Balb/c mouse at 100 mg/kg, po formulated in 0.5 % methyl cellulose maintained at pH 3. In kind it is ADME, organism-based. The following applies: in vivo, pH 3, 100 mg/kg.
The nature of data set [22]: Cmax in Balb/c mouse at 100 mg/kg, po formulated in 0.5 % methyl cellulose maintained at pH 3. The following applies: in vivo, pH 3, 100 mg/kg. In kind it is ADME, organism-based. Further details: route oral, dose 100 mg/kg.

CYP2C9, sequence (P11712 whole entry): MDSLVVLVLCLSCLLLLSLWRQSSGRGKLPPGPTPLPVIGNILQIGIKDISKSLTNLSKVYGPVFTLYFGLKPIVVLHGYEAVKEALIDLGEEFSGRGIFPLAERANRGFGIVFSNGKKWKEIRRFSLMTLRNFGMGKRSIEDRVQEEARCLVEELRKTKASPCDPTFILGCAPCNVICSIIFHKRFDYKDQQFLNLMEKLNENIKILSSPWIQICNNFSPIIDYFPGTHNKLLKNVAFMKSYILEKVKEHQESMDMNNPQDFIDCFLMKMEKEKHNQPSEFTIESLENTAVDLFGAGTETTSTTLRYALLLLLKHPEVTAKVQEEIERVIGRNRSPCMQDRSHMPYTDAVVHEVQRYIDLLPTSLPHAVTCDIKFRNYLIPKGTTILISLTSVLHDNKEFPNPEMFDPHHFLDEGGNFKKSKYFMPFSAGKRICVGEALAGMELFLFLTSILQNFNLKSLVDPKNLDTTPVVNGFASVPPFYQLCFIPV

For `COc1cc(C)[nH]c(=O)c1CNC(=O)c1c(C)n([C@H](C)C2CCN(CCC(F)(F)F)CC2)c2ccccc12`, the CLH amounted to 35.3 µL/min in [1], 25.7 µL/min in data set [4], 61.3 µL/min in data set [7] and 35.4 µL/min in data set [9]. Besides, the inhibition at 10 µM on CYP1A2 stood at 19.4%; at CYP3A4, 5%; at CYP2D6 it was 17.2%; against CYP2C9, 11.6%; against CYP2C8, 23.1%. The fraction unbound in data set [2] was 0.041; in [3], 0.037; in data set [8], 0.003; in data set [10], 0.026. The EC50 in data set [5] came out at 290 nM. For the same molecule, the IC50 in data set [6] stood at 2.3 nM.

On to `COc1cc(C)[nH]c(=O)c1CNC(=O)c1c(C)n([C@H](C)C2CCN(C(=O)OC(C)C)CC2)c2ccccc12`, for which the EC50 in data set [5] turned out to be 110 nM. The molecule further gave an IC50 in data set [6] of under 1 nM.

`COc1cc(C)[nH]c(=O)c1CNC(=O)c1c(C)n([C@H](C)C2CCN(C(=O)N(C)C)CC2)c2ccccc12`: the EC50 in data set [5] is 930 nM. This molecule also yielded an IC50 in data set [6] of 3.3 nM.

As to `COc1cc(C)[nH]c(=O)c1CNC(=O)c1c(C)n([C@H](C)C2CCN(C(=O)C(C)C)CC2)c2ccccc12`, in [5], the EC50 was found to be 420 nM. The molecule also registered an IC50 in data set [6] of 2.5 nM.

Turning to `COc1cc(C)[nH]c(=O)c1CNC(=O)c1c(C)n([C@H](C)C2CCN(CC(F)(F)C(F)F)CC2)c2ccccc12`, the EC50 in data set [5] amounted to 38 nM. The IC50 in data set [6] came out at 1.6 nM.

`COc1cc(C)[nH]c(=O)c1CNC(=O)c1c(C)n([C@H](C)C2CCN(C)CC2)c2ccccc12`: the EC50 in data set [5] stood at 470 nM. The molecule further showed an IC50 in data set [6] of under 1 nM.

For `CCOC(=O)CN1CCC([C@@H](C)n2c(C)c(C(=O)NCc3c(OC)cc(C)[nH]c3=O)c3ccccc32)CC1`, the EC50 in data set [5] is 260 nM. In addition, the IC50 in data set [6] was under 1 nM.

As for `COc1cc(C)[nH]c(=O)c1CNC(=O)c1c(C)n([C@H](C)C2CCN(CC(C)(F)F)CC2)c2ccccc12`, the CLH turned out to be 68.9 µL/min in data set [1], 86.1 µL/min in data set [4], 193 µL/min in data set [7] and 83.8 µL/min in data set [9]. For the same molecule, the inhibition at 10 µM at CYP1A2 is 0%; at CYP3A4, 0%; at CYP2D6, 7.7%; at CYP2C9, 5%; on CYP2C8, 50.9%. For the same molecule, the fraction unbound in data set [2] was 0.053; in data set [3], 0.064; in [8], 0.006; in data set [10] it was 0.076. Besides, the EC50 in data set [5] is 20 nM. This molecule displayed an IC50 in [6] of under 1 nM.

Consider `COc1cc(C)[nH]c(=O)c1CNC(=O)c1c(C)n([C@H](C)C2CCN(CC(F)F)CC2)c2ccccc12`, for which the CLH in data set [1] was found to be 52.4 µL/min; in data set [4], 71.3 µL/min; in data set [7], 131 µL/min. Also, the inhibition at 10 µM against CYP1A2 is 28.6%; at CYP3A4, 25.2%; on CYP2D6 it was 26.1%; against CYP2C9 it was 25.4%; on CYP2C8, 18.9%. This molecule gave a CL in [11] of 82%. Further, the AUC in data set [12] is 42.01 µM·h. In data set [13], this molecule had an F of 91.6%. Besides, the values for the fraction unbound in data set [2], in data set [3] and in data set [10] were 0.167, 0.357 and 0.169, respectively. Further, the Fu in [14] is 0.022%. Besides, the EC50 in [5] was 39 nM. Moreover, the half-life in [15] is 24.1 min. Also, in data set [6], inhibition was half-maximal at 1.8 nM (IC50). In addition, in data set [16], the CL free was determined as 3372 mL/min/kg. Besides, the fCmax in data set [17] came out at 1.15 µM. The same molecule gave a clearance in data set [18] of 74.2 mL/min/kg. Moreover, in data set [8], the PPB is on record as 97.8%. For the same molecule, the Vd in data set [19] turned out to be 1.1 L/kg. Besides, the Tmax in data set [20] was found to be 15 min. In [21], this molecule yielded a fAUC of 0.924 µM·h. In addition, in data set [22], the highest level (Cmax) was 52.1 µM.

For `COc1cc(C)[nH]c(=O)c1CNC(=O)c1c(C)n([C@H](C)C2CCN(C3COC3)CC2)c2ccccc12`, the EC50 in [5] worked out at 150 nM. This molecule also had an IC50 in data set [6] of under 1 nM.

In the case of `COc1cc(C)[nH]c(=O)c1CNC(=O)c1c(C)n([C@H](C)C2CCNCC2)c2ccccc12`, the EC50 in data set [5] was determined as 1100 nM. The same molecule came in with an IC50 in data set [6] of 2 nM.
